# From patent EP3755703B1, “N-(PHENYL)-2-(PHENYL)PYRIMIDINE-4-CARBOXAMIDE DERIVATIVES AND RELATED COMPOUNDS AS HPK1 INHIBITORS FOR TREATING CANCER” (Incyte Corporation, priority 2018, dated 2019)
# Target: T1, HPK1 (Homo sapiens, UniProt Q92918)
# T1 construct: purchased SignalChem M23-11G
# T1 sequence (Q92918 1-346 limits assumed): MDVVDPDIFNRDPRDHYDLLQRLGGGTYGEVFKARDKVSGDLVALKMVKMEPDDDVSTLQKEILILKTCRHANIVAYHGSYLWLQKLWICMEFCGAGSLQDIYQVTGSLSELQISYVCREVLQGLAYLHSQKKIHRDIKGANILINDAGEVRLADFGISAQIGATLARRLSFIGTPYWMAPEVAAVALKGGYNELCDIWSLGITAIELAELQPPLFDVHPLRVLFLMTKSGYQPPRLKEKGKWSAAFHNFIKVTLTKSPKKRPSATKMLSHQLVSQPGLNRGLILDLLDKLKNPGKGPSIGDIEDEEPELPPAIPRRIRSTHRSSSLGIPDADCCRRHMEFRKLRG
# Assay: HPK1 Kinase Binding Assay
# Conditions: LanthaScreen tracer 222, one hour incubation at 25 °C
# Description: A stock solution of 1 mM test compound was prepared in DMSO. The compound plate was prepared by 3-fold and 11-point serial dilutions. 0.1 µL of the compound in DMSO was transferred from the compound plate to the white 384 well polystyrene plates. The assay buffer contained 50 mM HEPES, pH 7.5, 0.01% Tween-20, 5 mM MgCl2, 0.01% BSA, and 5 mM DTT. 5 µL of 4 nM active HPK1 (SignalChem M23-11G) prepared in the buffer was added to the plate. The enzyme concentration given was based on the given stock concentration reported by the vender. […] After one hour incubation at 25 °C, the plates were read on a PHERAstar FS plate reader (BMG Labtech). Ki values were determined.
row,SMILES,Ki [nM]
1,"COc1cccc(F)c1-c1nccc(C(=O)Nc2ccccc2C2CCNCC2)n1 [Example 78, 2-(2-Fluoro-6-methoxyphenyl)-N-(2-(piperidin-4-yl)phenyl)pyrimidine-4-carboxamide]",100 to 500
2,"COc1cccc(F)c1-c1nccc(C(=O)Nc2cc(F)ccc2N2CCC3CNCC32)n1 (centres unmarked) [Example 9, N-(5-Fluoro-2-(hexahydropyrrolo[3,4-b]pyrrol-1(2H)-yl)phenyl)-2-(2-fluoro-6-methoxyphenyl)pyrimidine-4-carboxamide]",500 to 5000
3,"COc1cccc(F)c1-c1nccc(C(=O)Nc2cc(F)cc(-c3cccnc3)c2N2C[C@H]3C[C@@H]2CN3)n1 [Example 15, N-(2-((1R,4R)-2,5-Diazabicyclo[2.2.1]heptan-2-yl)-5-fluoro-3-(pyridin-3-yl)phenyl)-2-(2-fluoro-6-methoxyphenyl)pyrimidine-4-carboxamide]",< 100
4,"COc1ccc(C#N)c(F)c1-c1nccc(C(=O)Nc2cc(F)ccc2N2C[C@@H](N)C[C@H]2CO)n1 [Example 67, N-(2-((2S,4S)-4-Amino-2-(hydroxymethyl)pyrrolidin-1-yl)-5-fluorophenyl)-2-(3-cyano-2-fluoro-6-methoxyphenyl)pyrimidine-4-carboxamide]",< 100
5,"COc1cccc(F)c1-c1nccc(C(=O)Nc2ccc(-c3cnccc3C#N)cc2N2CCN(C)CC2)n1 [Example 108, N-(4-(4-Cyanopyridin-3-yl)-2-(4-methylpiperazin-1-yl)phenyl)-2-(2-fluoro-6-methoxyphenyl)pyrimidine-4-carboxamide]",< 100
7,"COCC1CN(c2cc(-c3cnccc3C#N)ccc2NC(=O)c2ccnc(-c3c(F)cccc3OC)n2)C1 [Example 105, N-(4-(4-Cyanopyridin-3-yl)-2-(3-(methoxymethyl)azetidin-1-yl)phenyl)-2-(2-fluoro-6-methoxyphenyl)pyrimidine-4-carboxamide]",< 100
8,"COc1cccc(F)c1-c1nc(C(=O)Nc2ccc(-c3cnccc3C#N)cc2N2C[C@@H](N)C[C@H]2CO)ccc1C#N [Example 60, N-(2-((2S,4S)-4-Amino-2-(hydroxymethyl)pyrrolidin-1-yl)-4-(4-cyanopyridin-3-yl)phenyl)-5-cyano-6-(2-fluoro-6-methoxyphenyl)picolinamide]",< 100
9,"Cc1cccc(F)c1-c1nccc(C(=O)Nc2ccc(-c3cnccc3C#N)cc2N2C[C@@H](N)C[C@H]2CO)n1 [Example 63, N-(2-((2S,4S)-4-Amino-2-(hydroxymethyl)pyrrolidin-1-yl)-4-(4-cyanopyridin-3-yl)phenyl)-2-(2-fluoro-6-methylphenyl)pyrimidine-4-carboxamide]",< 100
10,"COc1cccc(F)c1-c1nccc(C(=O)Nc2ccc(-c3c(F)cccc3C#N)cc2N2C[C@@H](N)C[C@H]2CO)n1 [Example 45, N-(3-((2S,4S)-4-Amino-2-(hydroxymethyl)pyrrolidin-1-yl)-2'-cyano-6'-fluorobiphenyl-4-yl)-2-(2-fluoro-6-methoxyphenyl)pyrimidine-4-carboxamide]",< 100
11,"COc1cccc(F)c1-c1nccc(C(=O)Nc2cc(F)ccc2N2C[C@@H](O)C[C@@H]2C)n1 [Example 7, N-(5-Fluoro-2-((2S,4S)-4-hydroxy-2-methylpyrrolidin-1-yl)phenyl)-2-(2-fluoro-6-methoxyphenyl)pyrimidine-4-carboxamide]",< 100

# More lines, now with the values ahead:
row,Ki [nM],SMILES
1,< 100,"COc1cccc(F)c1-c1nccc(C(=O)Nc2ccc(-c3cnccc3C#N)cc2N2C[C@@H](C)NC[C@H]2CO)n1 [Example 50, N-(4-(4-Cyanopyridin-3-yl)-2-((2S,5R)-2-(hydroxymethyl)-5-methylpiperazin-1-yl)phenyl)-2-(2-fluoro-6-methoxyphenyl)pyrimidine-4-carboxamide]"
2,< 100,"COc1cccc(F)c1-c1cccc(C(=O)Nc2ccc(-c3cnccc3C#N)cc2N2C[C@@H](N)C[C@H]2CO)n1 [Example 59, N-(2-((2S,4S)-4-Amino-2-(hydroxymethyl)pyrrolidin-1-yl)-4-(4-cyanopyridin-3-yl)phenyl)-6-(2-fluoro-6-methoxyphenyl)picolinamide]"
3,< 100,"COc1cccc(F)c1-c1nccc(C(=O)Nc2cc(F)ccc2N2C[C@@H](N(C)C)C[C@H]2CO)n1 [Example 88, N-(2-((2S,4S)-4-(Dimethylamino)-2-(hydroxymethyl)pyrrolidin-1-yl)-5-fluorophenyl)-2-(2-fluoro-6-methoxyphenyl)pyrimidine-4-carboxamide]"
4,< 100,"COc1cccc(F)c1-c1nccc(C(=O)Nc2ccccc2C2CCC(N)C2)n1 (centres unmarked) [Example 81, N-(2-(3-aminocyclopentyl)phenyl)-2-(2-fluoro-6-methoxyphenyl)pyrimidine-4-carboxamide]"
5,< 100,"COc1cccc(F)c1-c1nccc(C(=O)Nc2cccc(C#N)c2N2C[C@H]3C[C@@H]2CN3)n1 [Example 14, N-(2-((1R,4R)-2,5-Diazabicyclo[2.2.1]heptan-2-yl)-3-cyanophenyl)-2-(2-fluoro-6-methoxyphenyl)pyrimidine-4-carboxamide]"
6,< 100,"COc1cc(C)cc(F)c1-c1nccc(C(=O)Nc2ccc(-c3cnccc3C#N)cc2N2C[C@@H](N)C[C@H]2CO)n1 [Example 70, N-(2-((2S,4S)-4-Amino-2-(hydroxymethyl)pyrrolidin-1-yl)-4-(4-cyanopyridin-3-yl)phenyl)-2-(2-fluoro-6-methoxy-4-methylphenyl)pyrimidine-4-carboxamide]"
7,< 100,"COc1cccc(F)c1-c1nccc(C(=O)Nc2cc(F)ccc2N2C[C@H]3C[C@@H]2CN3CCO)n1 [Example 33, N-(5-Fluoro-2-((1R,4R)-5-(2-hydroxyethyl)-2,5-diazabicyclo[2.2.1]heptan-2-yl)phenyl)-2-(2-fluoro-6-methoxyphenyl)pyrimidine-4-carboxamide]"
8,< 100,"COc1cccc(F)c1-c1nccc(C(=O)Nc2ccc(-c3cnccc3C#N)cc2N2CC3(CC3)NC[C@H]2CO)n1 [Example 52, (S)-N-(4-(4-Cyanopyridin-3-yl)-2-(6-(hydroxymethyl)-4,7-diazaspiro[2.5]octan-7-yl)phenyl)-2-(2-fluoro-6-methoxyphenyl)pyrimidine-4-carboxamide]"
9,< 100,"COc1cccc(F)c1-c1nccc(C(=O)Nc2cc(F)ccc2N2CCC[C@@H]2CO)n1 [Example 4, (R)-N-(5-Fluoro-2-(2-(hydroxymethyl)pyrrolidin-1-yl)phenyl)-2-(2-fluoro-6-methoxyphenyl)pyrimidine-4-carboxamide]"
10,< 100,"COc1cccc(F)c1-c1nccc(C(=O)Nc2ccc(-c3ccncc3C#N)cc2N2C[C@@H](O)C[C@H]2CO)n1 [Example 49, N-(4-(3-Cyanopyridin-4-yl)-2-((2S,4S)-4-hydroxy-2-(hydroxymethyl)pyrrolidin-1-yl)phenyl)-2-(2-fluoro-6-methoxyphenyl)pyrimidine-4-carboxamide]"
12,< 100,"COc1cccc(F)c1-c1nccc(C(=O)Nc2ccc(-c3ccncc3C#N)c(F)c2N2C[C@@H]3C[C@H]2CN3)n1 [Example 40, N-(2-((1S,4S)-2,5-Diazabicyclo[2.2.1]heptan-2-yl)-4-(3-cyanopyridin-4-yl)-3-fluorophenyl)-2-(2-fluoro-6-methoxyphenyl)pyrimidine-4-carboxamide]"
13,< 100,"COc1cccc(F)c1-c1nccc(C(=O)Nc2ccc(-c3cnccc3C#N)cc2N2[C@@H]3CN[C@@H](C3)[C@@H]2CO)n1 [Example 56, N-(4-(4-Cyanopyridin-3-yl)-2-((1S,3R,4S)-3-(hydroxymethyl)-2,5-diazabicyclo [2.2.1]heptan-2-yl)phenyl)-2-(2-fluoro-6-methoxyphenyl)pyrimidine-4-carboxamide]"
14,< 100,"COc1cccc(F)c1-c1nccc(C(=O)Nc2ccc(S(C)(=O)=O)cc2N2C[C@@H](N)C[C@H]2CO)n1 [Example 85, N-(2-((2S,4S)-4-Amino-2-(hydroxymethyl)pyrrolidin-1-yl)-4-(methylsulfonyl)phenyl)-2-(2-fluoro-6-methoxyphenyl)pyrimidine-4-carboxamide]"
15,< 100,"Cc1c(F)ccc(F)c1-c1nccc(C(=O)Nc2ccc(-c3cnccc3C#N)cc2N2C[C@@H](N)C[C@H]2CO)n1 [Example 71, N-(2-((2S,4S)-4-Amino-2-(hydroxymethyl)pyrrolidin-1-yl)-4-(4-cyanopyridin-3-yl)phenyl)-2-(3,6-difluoro-2-methylphenyl)pyrimidine-4-carboxamide]"
